Experimental data: patent US10087416B2, “Culturing pluripotent stem cells” (Agency for Science, Technology and Research, priority 2013, dated 2018)

Assays:
Type in all cases: cell-based, human
hESCs = assay: Small molecule treatment of hESCs, expression of pluripotency and lineage markers (qPCR); conditions: for Expression of NANOG and POU5F1 / Expression level of lineage markers: individual chemicals of combination 22, subcultured onto feeders, harvested after 4 days, FIG. 1F; for Gene expression levels of pluripotency markers NANOG and POU5F1: hESCs treated with individual chemicals for 4 days, FIG. 1C
Description: For routine culture of hESCs in TeSR1 (Stem cell technologies), cells were cultured feeder free on matrigel (BD). Cell media was changed daily. The hESCs were subcultured with 1 mg/ml Dispase (Stem cell technologies) every 5-7 days. 3iL hESCs culture medium contains 1 μM of PD0325901 (Sigma), 2 μM of BIO (Sigma), 2 μM of Dorsomorphin (Sigma) and 10 ng/ml human LIF (Millipore) in TeSR1. 3iL media are prepared fresh and stored at 4° C. for not more than 2 weeks. For treatment with 3iL conditions, hESCs cultured in TeSR1 was treated with 3iL 48 hrs post-seeding. The cells are subsequently subcultured on mitomycin C inactivated mouse fibroblast. Cells are dissociated to single cells using TrypLE (Life Technologies). 3iL medium is refreshed daily and cells are subcultured upon confluency. ROCK inhibitor Thiazovivin is added at a final concentration of 1 μM to enhance cell survival for the first few passages. 3iL hESCs used in all the experiments have been cultured for at least 10 passages for adequate conditioning to the new culture condition.
hESCs were dissociated with dispase and treatment starts 48 hrs post seeding. For single chemical and combinatorial chemical treatment, the small molecules are used at the following final concentrations: 0.5 μM A83-01 (Stemgent), 2 μM BIO (Sigma), 3 μM CHIR99021 (Stemgent), 2 μM Dorsomorphin (Sigma), 8 μM Forskolin (Stemgent), 2 μM IDE-1 (Stemgent), 0.5 μM PD153035 (Sigma), 1 μM PD173074 (Sigma), 1 μM PD0325901 (Sigma), 5 μM Pifithrin-α (Sigma) and 1 μM RepSox (Sigma). All small molecules are reconstituted in DMSO. For PI3K pathway inhibition, LY294002 (Sigma) was used at final concentration of 10 μM.

3iL hESCs = assay: Signaling pathway inhibitor treatment of 3iL hESCs (pluripotency markers, colony numbers); conditions: treated for 10 days, compared to 3iL hESC control, FIG. 4B
Description: The hESC line H1 (WA-01, passage 28) was used for this study. For routine culture of hESCs in TeSR1 (Stem cell technologies), cells were cultured feeder free on matrigel (BD). Cell media was changed daily. The hESCs were subcultured with 1 mg/ml Dispase (Stem cell technologies) every 5-7 days. 3iL hESCs culture medium contains 1 μM of PD0325901 (Sigma), 2 μM of BIO (Sigma), 2 μM of Dorsomorphin (Sigma) and 10 ng/ml human LIF (Millipore) in TeSR1. 3iL media are prepared fresh and stored at 4° C. for not more than 2 weeks. For treatment with 3iL conditions, hESCs cultured in TeSR1 was treated with 3iL 48 hrs post-seeding. The cells are subsequently subcultured on mitomycin C inactivated mouse fibroblast. Cells are dissociated to single cells using TrypLE (Life Technologies). […]
For expression analysis, total RNA was extracted using the TRIzol reagent (Invitrogen) with chloroform and precipitated with isopropanol. […] RNA concentration was determined with the NanoDrop 2000 (Thermo Scientific). 500 ng of RNA was used for each reverse transcription reaction using the SuperScript II Kit (Invitrogen) to produce the cDNA for subsequent quantitative assays. Quantitative real-time PCR (qPCR) analysis was performed with the SYBR Green Master Mix (KAPA) using the ABI PRISM 7900 sequence detection system. […] Samples were multiplexed and sequenced single read 76 bp (HiSeq 2000, Illumina). […]

LIF signaling = LIF signaling activity in hESCs (GP130, phosphorylated STAT3, STAT3 responsive genes, NANOG)
Description: For expression analysis, total RNA was extracted using the TRIzol reagent (Invitrogen) with chloroform and precipitated with isopropanol. The precipitated RNA was centrifuged at 13000 rpm at 4° C. for 10 min. The RNA pellet was washed with 70% ethanol and subsequently reconstituted with DEPC-treated water (AMBION). DNA contaminants were digested with DNASE I (Ambion) at 37° C. for 30 min. The DNASE I enzyme is heat inactivated at 70° C. for 10 min. RNA concentration was determined with the NanoDrop 2000 (Thermo Scientific). 500 ng of RNA was used for each reverse transcription reaction using the SuperScript II Kit (Invitrogen) to produce the cDNA for subsequent quantitative assays. Quantitative real-time PCR (qPCR) analysis was performed with the SYBR Green Master Mix (KAPA) using the ABI PRISM 7900 sequence detection system. For RNA-Seq library preparation, the total RNA was further purified by column (Purelink RNA Mini kit, Ambion). […] Samples were multiplexed and sequenced single read 76 bp (HiSeq 2000, Illumina).
hESCs were lysed with a lysis buffer (50 mM Tris-HCl, pH 8.0, 150 mM NaCl, 10 μM ZnCl, 0.5% Nonidet P-40, 5% glycerol) supplemented with protease inhibitor cocktail (Merck). Protein concentration was measured with a Bradford assay kit (Bio-Rad). […] After washing with PBST, signals were detected using the Western Blotting Luminol Reagents (Santa Cruz).

| Compound | Expression of NANOG and POU5F1 (hESCs) | Gene expression levels of pluripotency markers NANOG and POU5F1 (hESCs) | further results |
| --- | --- | --- | --- |
| c1cc(-c2cnn3cc(-c4ccc(OCCN5CCCCC5)cc4)cnc23)ccn1 [DOR, 6-[4-(2-Piperidin-1-ylethoxy)phenyl]-3-pyridin-4-ylpyrazolo[1,5-a]pyrimidine] | remains in a comparable range | – | – |
| Cc1cccc(-c2nn(C(=S)Nc3ccccc3)cc2-c2ccnc3ccccc23)n1 [A83-01] | – | downregulation | Pluripotency markers NANOG, OCT4 and TRA-1-60 in 3iL hESCs (3iL hESCs): loss of pluripotency markers |
| CCN(CC)CCCCNc1ncc2cc(-c3cc(OC)cc(OC)c3)c(NC(=O)NC(C)(C)C)nc2n1 [PD173074] | – | – | Pluripotency markers NANOG, OCT4 and TRA-1-60 in 3iL hESCs (3iL hESCs): loss of pluripotency markers |
| LIF: leukemia inhibitory factor, human recombinant | – | – | NANOG expression levels (LIF signaling; increasing amount of LIF under 3i treatment, 5 days, FIG. 4A): increased with the addition of LIF in a dosage dependent manner; STAT3 phosphorylation (LIF signaling; whole cell extracts, Western blot, FIG. 3H): weakly activates |
| Cc1cccc(-c2[nH]ncc2-c2ccc3ncccc3n2)n1 [RepSOX] | – | downregulation | – |
| O=C1Nc2cc(Br)ccc2/C1=C1/Nc2ccccc2/C1=N\O [BIO, 6-bromoindirubin-3′-oxime] | downregulated | downregulation | Expression level of lineage markers (hESCs): stronger upregulation of T and GATA6 |
| O=C(NOC[C@H](O)CO)c1ccc(F)c(F)c1Nc1ccc(I)cc1F [PD03] | remains in a comparable range | – | Expression level of lineage markers (hESCs): increase in the PAX6 transcript |
